Measured values published in US20240341171A1 (Semiconductor Energy Laboratory Co., Ltd., priority 2021, published 2024).

Legend:
[1] = Calculation of solubility parameter (SP value) by molecular dynamics (LAMMPS); settings: calculated SP value against reference SP value of chloroform (approx. 9.4)
Description: The solubility parameter (SP value) δ can be calculated by Formula (1) shown in the following Formula 1 and Formula (2) shown in the following Formula 2, using a cohesive energy density obtained by a molecular dynamics (MD) method using the interaction between molecules in the molecular assembly.
Note that in the above Formula 1 and Formula 2, NA represents Avogadro's constant, V represents a molar volume of a molecular assembly, Ecoh represents a cohesive energy, Eassembly/number of molecules represents an energy per molecule in an assembly, and Eisolated molecule represents energy of each molecule that constitutes the assembly.
As the energy of the assembly (Eassembly) and the energy of each molecule that constitutes the assembly (Eisolated molecule), a three-dimensional coordinate of a molecule that is calculated using LAMMPS, which is an open source software, can be used.
Specifically, an initial state of the molecular assembly in which molecules are arranged at random is generated, using a single material system of molecules whose SP value σ is intended to be calculated. Next, the energy Eassembly of the assembly is calculated by performing a MD calculation using an NTP ensemble until when the energy and the volume go into an equilibrium state. On the other hand, the energy Eisolated molecule of each molecule that constitutes the assembly is calculated in the following manner: the volume and the shape of each molecule that constitutes the assembly are fixed and sampling is performed by the MD calculation using NVT ensemble. Next, statistical processing and substitution into Formula 1 and Formula 2 are performed, whereby the SP value δ is calculated.
First, the energy Eassembly of the assembly of the PTCDI derivatives is calculated. Specifically, an initial state (also referred to as a liquid model) of the molecular assembly which consists of a single system of 100 PTCDI derivatives (shown above as (a) to (i)) arranged at random, is generated. Next, the MD calculation using the NTP ensemble is performed until the energy and the volume go into an equilibrium state. In the MD calculation, samplings of Step 1 under high-temperature and pressure-rising conditions, Step 2 under high-temperature and pressure-rising conditions, Step 3 under high-temperature and high-pressure conditions, Step 4 under high-temperature and normal-pressure conditions, and Step 5 under normal-temperature and normal-pressure conditions are sequentially performed. The energy Eassembly/number of molecules per molecule of the PTCDI derivative is calculated by dividing the calculated value by 100.
The energy Eassembly of the assembly of the solvent is calculated.
Next, the MD calculation using the NTP ensemble is performed until the energy and the volume go into an equilibrium state. […]

[2] = Solubility test of PTCDI compounds (1 mg, solvent added in 1 mL steps, ultrasonic treatment, visual check); assay type: physicochemical; settings: for solubility: in chloroform and tetrahydrofuran, judged visually; for solvent [mL] CHCl3: volume of chloroform needed to dissolve 1 mg of compound; for solvent [mL] THF: volume of tetrahydrofuran needed to dissolve 1 mg of compound
Procedure: In this example, a solubility test for a perylenetetracarboxylic diimide (PTCDI) compounds were performed.
First, 1 mg of each of the PTCDJ compounds represented by (a) to (d) were weighed out and added to transparent containers. Next, (1) 1 mL of a solvent was added, and then ultrasonic treatment was performed for 1 minute. After that, (2) whether the PTCDI compounds were dissolved in the solvents was checked visually.
In each PTCDI compound, aforementioned (1) and (2) were repeated until the PTCDI compounds were dissolved in the solvents. When a solution is colored in yellowish-orange and solids of materials disappear, the PTCDI compounds are regarded to be dissolved.

[3] = reference value from a website; cited from earlier work

Structure (SMILES)	difference in SP value σ CHCl3 [1]	solubility [2]	solvent [mL] CHCl3 [2]	solvent [mL] THF [2]	SP value [3]
CCC(CC)N1C(=O)c2ccc3c4ccc5c6c(ccc(c7ccc(c2c37)C1=O)c64)C(=O)N(C(CC)CC)C5=O [(d) EtPr-PTCDI, 2,9-di(pentan-3-yl)anthra[2,1,9-def:6,5,10-d′e′f]diisoquinoline-1,3,8,10(2H,9H)-tetraone]	0.9	extremely favorable	1 mL	1 mL	
CCCCCCCCN1C(=O)c2ccc3c4ccc5c6c(ccc(c7ccc(c2c37)C1=O)c64)C(=O)N(CCCCCCCC)C5=O	1.3	improved as compared with that of Me-PTCDI	55 mL	>100 mL	
CCCCC(CC)CN1C(=O)c2ccc3c4ccc5c6c(ccc(c7ccc(c2c37)C1=O)c64)C(=O)N(CC(CC)CCCC)C5=O (centres unmarked)	1.0	improved as compared with that of PTCDI-C8	1 mL	16 mL	
CN1C(=O)c2ccc3c4ccc5c6c(ccc(c7ccc(c2c37)C1=O)c64)C(=O)N(C)C5=O	2.9	extremely poor	>100 mL	>100 mL	
ClC(Cl)Cl [chloroform]					approximately 9.4 (cal/cm^3)^1/2
